In ChEMBL document CHEMBL5137100, “N-Alkyl-2-Quinolonopyrones Demonstrate Antimicrobial Activity against ESKAPE Pathogens Including Staphylococcus aureus” (2022) one finds MIC80 data, which are given here for twelve compounds.

Holding throughout (assay type): functional
Holding throughout (conditions): time 18-20 hrs

Assay [1] has as its system Staphylococcus aureus. The experiment in a line: Antibacterial activity against methicillin-resistant Staphylococcus aureus GP-020 ATCC 43300 assessed as reduction in bacterial growth in CAMHB incubated for 18 to 20 hrs by broth dilution method. For orientation: Dilution methods test growth across graded concentrations, often in twofold steps.
Assay [2] has as its system Staphylococcus aureus. Put plainly: Antibacterial activity against methicillin-resistant Staphylococcus aureus GP-021 ATCC 33591 assessed as reduction in bacterial growth in CAMHB incubated for 18 to 20 hrs by broth dilution method.
Assay [3] concerns Staphylococcus aureus. Put plainly: Antibacterial activity against methicillin-sensitive Staphylococcus aureus GP-001 ATCC 25923 assessed as reduction in bacterial growth in CAMHB incubated for 18 to 20 hrs by broth dilution method.
Assay [4] deals with Staphylococcus aureus. Put plainly: Antibacterial activity against daptomycin and methicillin resistant Staphylococcus aureus GP-036 assessed as reduction in bacterial growth in CAMHB incubated for 18 to 20 hrs by broth dilution method.
For assay [5], the system named is Staphylococcus aureus. The experiment in a line: Antibacterial activity against vancomycin intermediate and methicillin resistant Staphylococcus aureus GP-035 ATCC 700699 assessed as reduction in bacterial growth in CAMHB incubated for 18 to 20 hrs by broth dilution method.
Assay [6] relates to Staphylococcus epidermidis. Put plainly: Antibacterial activity against Staphylococcus epidermidis GP-033 NRS 60 assessed as reduction in bacterial growth in CAMHB incubated for 18 to 20 hrs by broth dilution method.
In assay [7] the test system is Enterococcus sp. The experiment in a line: Antibacterial activity against vancomycin resistant Enterococcus sp. GP-026 ATCC 700221 assessed as reduction in bacterial growth in CAMHB incubated for 18 to 20 hrs by broth dilution method.
For assay [8], the system named is Staphylococcus epidermidis. The experiment in a line: Antibacterial activity against Staphylococcus epidermidis GP-017 ATCC 12228 assessed as reduction in bacterial growth in CAMHB incubated for 18 to 20 hrs by broth dilution method.
Assay [9] deals with Enterococcus sp. Put plainly: Antibacterial activity against Enterococcus sp. GP-024 ATCC 35667 assessed as reduction in bacterial growth in CAMHB incubated for 18 to 20 hrs by broth dilution method.

Each structure is given as a SMILES string. Values after ≈ are worked out from the molar mass of the structure shown.

One may read the MIC80 as an inhibitory concentration at the 80% level, which refers to growth in some studies and to a panel of isolates in others.

As to `CCCCCCCn1c(=O)c2c(O)cc(=O)oc2c2cc(CCCCCC)ccc21`, the MIC80 with Staphylococcus aureus [1] was 256 µg/mL (≈ 622 µM); in the assay with Staphylococcus aureus [2], > 256 µg/mL; in the assay with Staphylococcus aureus [3], 256 µg/mL (≈ 622 µM).
As for `CCCCCCCCCn1c(=O)c2c(O)cc(=O)oc2c2ccccc21`, the MIC80 was 1 µg/mL (≈ 2.81 µM) in the assay with Staphylococcus aureus [4]; 2 µg/mL (≈ 5.63 µM) in the assay with Staphylococcus aureus [1]; 2 µg/mL (≈ 5.63 µM) in the assay on Staphylococcus aureus [5]; 2 µg/mL (≈ 5.63 µM) in assay [6]; 2 µg/mL (≈ 5.63 µM) with Staphylococcus aureus [2]; 4 µg/mL (≈ 11.3 µM) in the assay with Staphylococcus aureus [3]. The MIC80 was 4 µg/mL (≈ 11.3 µM) with Enterococcus sp. [7], 2 µg/mL (≈ 5.63 µM) in assay [8] and > 4 µg/mL with Enterococcus sp. [9].
For the compound `CCCCCCCn1c(=O)c2c(O)cc(=O)oc2c2cc(Cl)ccc21`, the MIC80 with Staphylococcus aureus [4] was 1 µg/mL (≈ 2.76 µM); in the assay on Staphylococcus aureus [1], 1 µg/mL (≈ 2.76 µM); with Staphylococcus aureus [5], 128 µg/mL (≈ 354 µM); in [6], 8 µg/mL (≈ 22.1 µM); with Staphylococcus aureus [2], > 128 µg/mL; with Staphylococcus aureus [3] it was 8 µg/mL (≈ 22.1 µM). Also, the MIC80 is 64 µg/mL (≈ 177 µM) in the assay on Enterococcus sp. [7], 1 µg/mL (≈ 2.76 µM) in assay [8] and > 128 µg/mL in the assay on Enterococcus sp. [9].
As for `CCCCCCCn1c(=O)c2c(O)cc(=O)oc2c2cc(C)ccc21`, the MIC80 was > 128 µg/mL in the assay on Staphylococcus aureus [4]; 1 µg/mL (≈ 2.93 µM) in the assay on Staphylococcus aureus [1]; > 128 µg/mL with Staphylococcus aureus [5]; > 64 µg/mL in [6]; 64 µg/mL (≈ 187 µM) with Staphylococcus aureus [2]; > 128 µg/mL with Staphylococcus aureus [3]. Moreover, the MIC80 with Enterococcus sp. [7] worked out at 32 µg/mL (≈ 93.7 µM); in assay [8] it was 16 µg/mL (≈ 46.9 µM); in the assay with Enterococcus sp. [9], 128 µg/mL (≈ 375 µM).
Consider `CCCCCCCn1c(=O)c2c(O)cc(=O)oc2c2cc(F)ccc21`, for which the MIC80 with Staphylococcus aureus [4] was 2 µg/mL (≈ 5.79 µM); in the assay on Staphylococcus aureus [1], 2 µg/mL (≈ 5.79 µM); with Staphylococcus aureus [5], 4 µg/mL (≈ 11.6 µM); in assay [6], 8 µg/mL (≈ 23.2 µM); with Staphylococcus aureus [2], 4 µg/mL (≈ 11.6 µM); with Staphylococcus aureus [3], 8 µg/mL (≈ 23.2 µM). The results for the MIC80 (in the assay on Enterococcus sp. [7]; in assay [8]; in the assay with Enterococcus sp. [9]) were 32 µg/mL (≈ 92.7 µM), 4 µg/mL (≈ 11.6 µM) and > 64 µg/mL, respectively.
Consider `CCCCCCCCCCn1c(=O)c2c(O)cc(=O)oc2c2ccccc21`, for which the MIC80 was > 64 µg/mL with Staphylococcus aureus [4]; 4 µg/mL (≈ 10.8 µM) in the assay with Staphylococcus aureus [1]; > 64 µg/mL in the assay on Staphylococcus aureus [5]; > 64 µg/mL in [6]; > 64 µg/mL in the assay with Staphylococcus aureus [2]; > 64 µg/mL with Staphylococcus aureus [3]. Also, the MIC80 in the assay on Enterococcus sp. [7] was 0.5 µg/mL (≈ 1.35 µM); in assay [8], 4 µg/mL (≈ 10.8 µM); in the assay on Enterococcus sp. [9] it was > 64 µg/mL.
Turning to `CCCCCCCn1c(=O)c2c(O)cc(=O)oc2c2ccccc21`, the MIC80 is 4 µg/mL (≈ 12.2 µM) with Staphylococcus aureus [4]; 4 µg/mL (≈ 12.2 µM) in the assay on Staphylococcus aureus [1]; 8 µg/mL (≈ 24.4 µM) in the assay with Staphylococcus aureus [5]; 4 µg/mL (≈ 12.2 µM) in assay [6]; 8 µg/mL (≈ 24.4 µM) in the assay on Staphylococcus aureus [2]; 8 µg/mL (≈ 24.4 µM) in the assay on Staphylococcus aureus [3]. The MIC80 with Enterococcus sp. [7] was 16 µg/mL (≈ 48.9 µM); in assay [8], 4 µg/mL (≈ 12.2 µM); in the assay on Enterococcus sp. [9] it was > 128 µg/mL.
As to `CCCCCCCn1c(=O)c2c(O)cc(=O)oc2c2cc(OC)ccc21`, the figures for the MIC80 in the assay on Staphylococcus aureus [1], in the assay with Staphylococcus aureus [2] and with Staphylococcus aureus [3] were ≤ 8 µg/mL, ≤ 8 µg/mL and 8 µg/mL (≈ 22.4 µM), respectively.
For the compound `CCCCCCCCn1c(=O)c2c(O)cc(=O)oc2c2ccccc21`, the MIC80 was 4 µg/mL (≈ 11.7 µM) in the assay on Staphylococcus aureus [4]; 2 µg/mL (≈ 5.86 µM) in the assay on Staphylococcus aureus [1]; 4 µg/mL (≈ 11.7 µM) with Staphylococcus aureus [5]; 1 µg/mL (≈ 2.93 µM) in assay [6]; 4 µg/mL (≈ 11.7 µM) with Staphylococcus aureus [2]; 8 µg/mL (≈ 23.4 µM) in the assay on Staphylococcus aureus [3]. For the same compound, the MIC80 is 1 µg/mL (≈ 2.93 µM) in the assay with Enterococcus sp. [7], 4 µg/mL (≈ 11.7 µM) in [8] and > 128 µg/mL with Enterococcus sp. [9].
In the case of `CCCCCCCn1c(=O)c2c(O)cc(=O)oc2c2cc(C(C)(C)C)ccc21`, the MIC80 with Staphylococcus aureus [4] came out at 1 µg/mL (≈ 2.61 µM); in the assay on Staphylococcus aureus [1] it was 1 µg/mL (≈ 2.61 µM); with Staphylococcus aureus [5], 1 µg/mL (≈ 2.61 µM); in assay [6], 0.25 µg/mL (≈ 0.652 µM); with Staphylococcus aureus [2] it was 2 µg/mL (≈ 5.22 µM); in the assay on Staphylococcus aureus [3], 2 µg/mL (≈ 5.22 µM). The MIC80 with Enterococcus sp. [7] was 4 µg/mL (≈ 10.4 µM); in assay [8] it was 2 µg/mL (≈ 5.22 µM); in the assay with Enterococcus sp. [9], > 128 µg/mL.
In the case of `CCCCCCCn1c(=O)c2c(O)cc(=O)oc2c2c(C)cc(C)cc21`, the MIC80 in the assay on Staphylococcus aureus [1], in the assay with Staphylococcus aureus [2] and in the assay on Staphylococcus aureus [3] was > 256 µg/mL throughout.
Take `CCCCCCn1c(=O)c2c(O)cc(=O)oc2c2ccccc21`: the MIC80 in the assay on Staphylococcus aureus [4] was found to be 8 µg/mL (≈ 25.5 µM); in the assay with Staphylococcus aureus [1] it was 8 µg/mL (≈ 25.5 µM); with Staphylococcus aureus [5] it was 8 µg/mL (≈ 25.5 µM); in [6], 2 µg/mL (≈ 6.38 µM); in the assay with Staphylococcus aureus [2] it was 16 µg/mL (≈ 51.1 µM); in the assay on Staphylococcus aureus [3] it was 16 µg/mL (≈ 51.1 µM). Besides, the MIC80 in the assay on Enterococcus sp. [7] is 8 µg/mL (≈ 25.5 µM); in assay [8], 8 µg/mL (≈ 25.5 µM); in the assay with Enterococcus sp. [9], > 64 µg/mL.
